Article PMC9740939, “A Network-Pharmacology-Combined Integrated Pharmacokinetic Strategy to Investigate the Mechanism of Potential Liver Injury due to Polygonum multiflorum” (Molecules, 2022)
Where two headings read alike, the source gives them in different places.

Legend:
[1] = Stability of analytes in rat plasma (QC samples, storage and freeze–thaw); format: in vitro ADME; settings: for Stability in rat plasma (in words): 4 °C for 48 h, −80 °C for 10 days, three freeze–thaw cycles; for Stability Re (%), 4 °C, 48 h / Stability Re (%), −80 °C, 10 Days / Stability Re (%), Three Freeze–Thaw Cycles: rat plasma, n = 6; for Stability Re (%), Three Freeze–Thaw Cycles: −80 °C to 25 °C
Experimental: Samples for bioanalytical method validation were prepared by spiking 100 μL of blank rat plasma and 100 μL of IS solution in bulk with different standard solutions to obtain appropriate concentrations for serial standard working solutions with the matrix and QC samples (TSG, PG, AE, and EM: 0.50 ng/mL (lower limit of quantitation, LLOQ), 10.0 ng/mL (low quality control, LQC), 200 ng/mL (medium quality control, MQC), and 640 ng/mL (high quality control, HQC); EG: 0.125 ng/mL (LLOQ), 2.50 ng/mL (LQC), 50.0 ng/mL (MQC), and 160 ng/mL (HQC)). All the stock solutions, working solutions, and samples were stored at −80 °C pending use.
Stability experiments were performed to evaluate the stability of the analytes in rat plasma at the LQC, MQC, and HQC under different time and temperature conditions. These included short-term stability (4 °C for 48 h), long-term stability (−80 °C for 10 days), and stability over three freeze–thaw cycles (−80 °C to 25 °C) by analyzing QC samples.

[2] = Pharmacokinetic study in rats after oral administration of PM extract (HPLC-QQQ-MS of plasma); format: in vivo, Sprague–Dawley (SD) rats; settings: oral PM 18 g/kg; for half-life: n = 6, read-out: T1/2z (converted); for MRT last: read-out: MRT0–t; for MRT inf: read-out: MRT0–∞; for Vd/F: read-out: Vz/F
Experimental: Adult male Sprague–Dawley (SD) rats weighing between 180 g and 220 g were purchased from Beijing Vital River Laboratory Animal Technology Co., Ltd. (Beijing, China). The rats were kept in an animal center with air-conditioning and with a natural light–dark cycle (22 ± 1 °C and 40–50% humidity) with ad libitum access to standard food and water for a week before the experiment. All the animal procedures were in accordance with the Regulations of Experimental Animal Administration issued by the State Committee of Science and Technology of the People’s Republic of China. All the SD rats were fasted for 12 h prior to the experiment but with free access to water.
The assay was performed with an Agilent 1260 high-performance liquid chromatography system combined with Agilent 6470 QQQ MS (Agilent Technologies, CA, USA). Applied Masshunter Qualitative Analysis software (version B.07.00) and Quantitative Analysis software (version 07.00) were used for data acquisition and quantification. Analytes separation was achieved on a reversed-phase C18 column (Agilent Poroshell 120 EC-C18, 3.0 × 50 mm, 2.7 μm), which was protected by a guard column (Agilent EC-C18 3.0 × 5.0 mm, 2.7 μm). A gradient elution program composed of water (A) and acetonitrile (B) with gradient elution was used as follows: 0–1 min, 5% B; 1–3 min, 5–45% B; 3–7 min, 45–60% B; and 7–9 min, 60–95% B. The oven temperature was maintained at 40 °C. The flow rate was set at 0.6 mL/min (with a split ratio of 1:1.8), and the injection volume was 4 μL.
Agilent QQQ MS equipped with an electrospray ionization (ESI) source was used for mass spectrometric detection. MRM mode (negative) was used for performing the quantification of TSG, EG, PG, AE, and EM. The other MS conditions were set as follows: gas temperature, 300 °C, gas flow, 8 L/min; nebulizer, 55 psi; and sheath gas flow, 11 L/min.
A simple pretreatment method for protein precipitation was carried out to clean up the plasma samples prior to LC-MS/MS analysis. The plasma sample was thawed to room temperature. An aliquot of pre-cooled 800 μL of acetonitrile and 100 μL of IS solution (100 ng/mL) was added to a 300 μL plasma sample in a centrifuge tube. The tubes were vortexed for 10 min and spun in a centrifuge at 12,000 rpm for 15 min at 4 °C. The supernatant was transferred into a separate tube and dried using a vacuum concentrator, and the samples were re-dissolved with 100 μL of pure methanol. Next, the tube was vortexed for 10 min and spun in a centrifuge at 12,000 rpm for 15 min at 4 °C again. The supernatant was then injected into the HPLC-QQQ-MS instrument for analysis.
(§1) Blood samples were collected from the fundus into heparinized 1.5 mL polythene tubes at 5, 15, and 30 min and 1, 2, 4, 8, 12, and 24 h after oral administration of PM (18 g/kg). The blood samples were immediately centrifuged at 3500 rpm for 10 min to obtain plasma. Next, the plasma obtained was prepared for HPLC-QQQ-MS analysis, as described before. The TSG, EG, PG, AE, and EM concentrations in plasma versus time data for each rat were analyzed using Drug and Statistics Software (DAS version 3.2.8, Beijing University of Traditional Chinese Medicine, Beijing, China).

[3] = Integrated pharmacokinetics by AUC-based weighting approach; format: in vivo, Sprague–Dawley (SD) rats; settings: Wj = AUCj0–∞ / sum of AUC0–∞; rats, oral PM 18 g/kg
Experimental: as §1
As mentioned before, the concentration–time curve (AUC0–∞) of each constituent was obtained using DAS, and then the integrated concentration was obtain using the following equations [46]: The weighting coefficient for each component was calculated using Equations (1) and (2). The integrated concentrations were then calculated by Equation (3). (1) Wj=AUCj0−∞/∑13AUC0−∞ (2) ∑13AUC0−∞=AUC0−∞1+AUC0−∞2+AUC0−∞3 (3) cT=W1×c1+W2×c2+W3×c3 where ω represents the weighting coefficient, “j” represents the three constituents studied, C1–C3 represent the plasma concentration of the three index components studied, and CT represents the integrated plasma concentration.

[4] = HQC: spiked 640 ng/mL (EG 160 ng/mL)
[5] = LQC: spiked 10.0 ng/mL (EG 2.50 ng/mL)
[6] = MQC: spiked 200 ng/mL (EG 50.0 ng/mL)
[7] = male, Sprague-Dawley, rat, plasma, po, 18 g/kg, n = 6
[8] = male, Sprague-Dawley, rat, plasma, po, 18 g/kg
[9] = male, Sprague-Dawley, rat plasma, n = 6
[10] = male, Sprague-Dawley, rat plasma, n = 6, read-out: Tmax

| MRT inf [2, 9] | Compound | Stability in rat plasma (in words) [1] | Stability Re (%), 4 °C, 48 h [1, 4] | Stability Re (%), −80 °C, 10 Days [1, 4] | Stability Re (%), Three Freeze–Thaw Cycles [1, 4] | Stability Re (%), 4 °C, 48 h [1, 5] | Stability Re (%), −80 °C, 10 Days [1, 5] | Stability Re (%), Three Freeze–Thaw Cycles [1, 5] | Stability Re (%), 4 °C, 48 h [1, 6] | Stability Re (%), −80 °C, 10 Days [1, 6] | Stability Re (%), Three Freeze–Thaw Cycles [1, 6] | AUC(0-inf) [2, 7] | half-life [2, 8] | AUC(0-t) [2, 9] | Cmax [2, 9] | MRT last [2, 9] | Vd/F [2, 9] | CLz/F ([2]; rat plasma, n = 6) | Weighting coefficient (AUC0–∞ share) [3] | T1/2z ([2]; rat plasma, n = 6) | further results |
| --- | --- | --- | --- | --- | --- | --- | --- | --- | --- | --- | --- | --- | --- | --- | --- | --- | --- | --- | --- | --- | --- |
| – | Cc1cc(O)c2c(c1)C(=O)c1cc(O)cc(O)c1C2=O [EM, emodin] | stable | 85.19% | 111.7% | 99.10% | 86.36% | 97.48% | 96.37% | 92.05% | 99.40% | 98.71% | 1020 ± 300 ng·h/mL | 665 ± 313 min | 1020 ± 142 ng·h/mL | 388 ± 32.1 ng/mL | 6.82 ± 0.545 h | 152 ± 51.5 L/kg | 10.2 ± 2.54 L/h/kg | – | 11.1 ± 5.22 h | AUC0–∞ ([2]; rat plasma, n = 6): 1041 ± 300.2 ng·h/mL; MRT0–∞ ([2]; rat plasma, n = 6): 12.71 ± 5.092 h |
| 17.6 ± 13.9 h | COc1cc(O)c2c(c1)C(=O)c1cc(C)cc(OC3OC(CO)C(O)C(O)C3O)c1C2=O [PG, physcion-8-O-β-D-glucoside] | stable | 92.41% | 96.88% | 98.03% | 98.55% | 90.14% | 88.21% | 90.36% | 94.69% | 94.08% | – | 739 ± 605 min | 146 ± 19.4 ng·h/mL | 20 ± 2.69 ng/mL | 8.41 ± 1.01 h | 242 ± 71.8 L/kg | 17.4 ± 6.19 L/h/kg | – | 12.3 ± 10.1 h | AUC(0-inf) [2, 9]: 205 ± 95.6 ng·h/mL; Tmax [2, 10]: 15 min |
| 1.23 ± 0.203 h | OCC1OC(Oc2c(O)cc(O)cc2C=Cc2ccc(O)cc2)C(O)C(O)C1O [TSG, trans-2,3,5,4′-tetrahydroxystilbene-2-O-β-D-glucoside] | stable | 97.86% | 92.72% | 99.01% | 100.1% | 97.92% | 91.38% | 92.13% | 95.95% | 95.27% | – | 133 ± 80.4 min | 758 ± 58.9 ng·h/mL | 728 ± 104 ng/mL | 1.22 ± 0.182 h | 2000 ± 1270 L/kg | 618 ± 46.1 L/h/kg | 30.19% | – | AUC(0-inf) [2, 9]: 758 ± 58.6 ng·h/mL; Tmax [2, 10]: 15 min |

| Compound | MRT inf [2, 9] | Stability in rat plasma (in words) [1] | Stability Re (%), 4 °C, 48 h [1, 4] | Stability Re (%), −80 °C, 10 Days [1, 4] | Stability Re (%), Three Freeze–Thaw Cycles [1, 4] | Stability Re (%), 4 °C, 48 h [1, 5] | Stability Re (%), −80 °C, 10 Days [1, 5] | Stability Re (%), Three Freeze–Thaw Cycles [1, 5] | Stability Re (%), 4 °C, 48 h [1, 6] | Stability Re (%), −80 °C, 10 Days [1, 6] | Stability Re (%), Three Freeze–Thaw Cycles [1, 6] | AUC(0-inf) [2, 7] | half-life [2, 8] | AUC(0-t) [2, 9] | Cmax [2, 9] | MRT last [2, 9] | Vd/F [2, 9] | CLz/F ([2]; rat plasma, n = 6) | Weighting coefficient (AUC0–∞ share) [3] | T1/2z ([2]; rat plasma, n = 6) | further results |
| --- | --- | --- | --- | --- | --- | --- | --- | --- | --- | --- | --- | --- | --- | --- | --- | --- | --- | --- | --- | --- | --- |
| O=C1c2cccc(O)c2C(=O)c2c(O)cc(CO)cc21 [AE, aloe-emodin] | 8.57 ± 3.02 h | stable | 90.21% | 100.1% | 96.94% | 94.77% | 90.27% | 90.50% | 97.05% | 89.62% | 91.44% | 70.3 ± 13.8 ng·h/mL | 385 ± 130 min | 64.5 ± 9.4 ng·h/mL | 17.9 ± 2.94 ng/mL | 6.5 ± 1.42 h | 407 ± 113 L/kg | 45.4 ± 7.85 L/h/kg | 2.799% | – | Tmax ([2]; rat plasma, n = 6): 15 ± 0 min |
